Entries after “also recorded” stand apart in the source; their conditions may differ.
Experiments:
[1] = DSC analysis of glass transition temperatures (Tg, Tg′); format: physicochemical; details: compound itself
Protocol: Tg′ and Tg were evaluated using a PYRIS Diamond DSC. Samples for Tg′ determination were prepared by loading 50 μL of sample into a 500 μL aluminum pan, then sealing the pan using the sealing press. The thermal program used to identify Tg′ (without annealing) was: • 1. Ramp from 20° C. to −50° C. at 10° C./min • 2. Hold at −50° C. for 4 minutes • 3. Ramp from −50° C. to 20° C. at 10° C./min The thermal program used to identify Tg′ that included an annealing step was: • 1. Ramp from 20° C. to −45° C. at 10° C./min • 2. Hold at −45° C. for 10 minutes • 3. Ramp from −45° C. to −8° C. at 10° C./min • 4. Hold at −8° C. for 1 hour • 5. Ramp from −8° C. to −70° C. at 10° C./min • 6. Hold at −70° C. for 5 minutes • 7. Ramp from −70° C. to 20° C. at 10° C./min Tg′ was taken to be the midpoint of the transition.
Freeze-dried samples used in the determination of […] ramped the temperature from 25° C. to 150° C. at 10° C./min.

[2] = Stability during freeze-drying by reverse-phase HPLC; format: physicochemical
Protocol: Reverse phase HPLC was used to quantify the potency and purity of; disodium 2-(N′-methyl-N′-thiobenzoyl-hydrazinocarbonyl)-1-(methyl-thiobenzoyl-hydrazono)-ethanolate following freeze-drying. The analysis was performed as detailed in the analytical method.

| SMILES | Tg (glass transition temperature) [1] | main peak purity ([2]; RP-HPLC after freeze-drying, on average) | stability during freeze-drying ([2]; reverse-phase HPLC, all freeze-drying cycles tested) |
| --- | --- | --- | --- |
| CN(/N=C(\O)C/C(O)=N/N(C)C(=S)c1ccccc1)C(=S)c1ccccc1 [Structural Formula, (II)] | −44.7 °C |  |  |
| CN(NC(=O)CC(=O)NN(C)C(=S)c1ccccc1)C(=S)c1ccccc1 [disodium 2-(N′-methyl-N′-thiobenzoyl-hydrazinocarbonyl)-1-(methyl-thiobenzoyl-hydrazono)-ethanolate] |  | 97% | stable through all of the freeze-drying cycles tested, as no degradation products were detected; also recorded: did not adversely affect the stability |
